From publication PMC12040169 (PLOS Biology, 2025)

Experiment: in vitro
Conditions: human, hela cells, % viability

Row | Structure (SMILES) | viability at 28.5 h, 10 µM [%]
1 | Cc1ccccc1OCCSc1nc2ccccc2n1CCO [CBK262523] | 98.1
2 | COC(=O)c1ccccc1NC(=O)c1cc2nc(-c3cccs3)cc(C(F)(F)F)n2n1 [CBK262524] | 88
3 | C=CCOC(=O)C1=C(C)OC(N)=C(C(=O)OCc2ccccc2)C12C(=O)Nc1ccccc12 (centres unmarked) [CBK262527] | 90.9
4 | Cc1nc(N/C(=N/C(=O)c2ccccc2)NC(=O)c2ccccc2)nc2ccccc12 [CBK262529] | 103
5 | CN(C)c1ccc(/C=C(\C#N)c2nn(-c3ccccc3)c(N)c2C#N)cc1[N+](=O)[O-] [CBK262532] | 83.4
6 | O=C(Nc1cc(Oc2cccnc2)cc([N+](=O)[O-])c1)c1nn2c(C(F)(F)F)cc(-c3cccs3)nc2c1Br [CBK262535] | 84.7
7 | O=C(c1ccc(S(=O)(=O)N2CCCCC2)cc1)N1CCN(CCN2C(=O)c3cccc4cccc(c34)C2=O)CC1 [CBK262536] | 79.3
8 | CCOC(=O)c1c(NC(=O)c2nn3c(C(F)(F)F)cc(-c4cccs4)nc3c2Cl)sc2c1CCCC2 [CBK262539] | 95.1
9 | O=S(=O)(NCC(O)Cn1c2ccc(Cl)cc2c2cc(Cl)ccc21)c1ccccc1 (centres unmarked) [CBK262542] | 88.6
10 | O=[N+]([O-])c1ccc(NCCCNS(=O)(=O)c2ccc(Cl)cc2)c(Cl)c1 [CBK262543] | 90.6
11 | OC(Cn1c(Cc2ccccc2)nc2ccccc21)Cn1c2ccc(Cl)cc2c2cc(Cl)ccc21 (centres unmarked) [CBK262546] | 89.4
12 | CCOC(=O)C1=c2s/c(=C\c3cccnc3)c(=O)n2C(N)=C(C#N)C1c1cccnc1 (centres unmarked) [CBK262549] | 107
13 | O=C(O)CCn1c2ccc(Br)cc2c2cc(Br)ccc21 [CBK262551] | 83.9
14 | CCOC(=O)c1c(NC(=O)c2cc3ccccc3o2)sc2c1CCCC2 [CBK262552] | 84
15 | O=C(NCCCN1CCOCC1)c1nn2c(C(F)(F)F)cc(-c3cccs3)nc2c1Cl [CBK262553] | 82
16 | O=C(Nc1cc(Oc2cccnc2)cc([N+](=O)[O-])c1)c1cc2nc(-c3ccccc3)cc(-c3ccccc3)n2n1 [CBK262554] | 87.3

Row | Structure (SMILES) | viability at 28.5 h, 10 µM [%]
17 | O=C(O)CCSc1nc2ccccc2n1CCOc1ccccc1 [CBK262555] | 95.9
18 | O=C(c1sc2ccccc2c1Cl)N1CCN(CCN2C(=O)c3cccc4cccc(c34)C2=O)CC1 [CBK262557] | 99
19 | Cc1c(Br)c(C(F)(F)F)nn1CC(=O)Nc1ccc(Oc2cc([N+](=O)[O-])cc([N+](=O)[O-])c2)cc1 [CBK262558] | 97.5
20 | CC1(C)Cc2c(ccc3ccccc23)C(NCC(=O)O)=N1 [CBK262559] | 97.6
21 | Cc1ccc(OCCn2c(SCCC(=O)O)nc3ccccc32)cc1 [CBK262561] | 84.7
22 | N#CC1=C(N)n2c(s/c(=C\c3ccncc3)c2=O)=C(C#N)C1c1ccncc1 (centres unmarked) [CBK262563] | 96
23 | CCN=C(S)NNC(=O)CCn1c2ccccc2c2ccccc21 [CBK262564] | 93.8
24 | Cc1ccccc1NC(=O)CC1c2ccccc2CC(C)(C)N1C (centres unmarked) [CBK262567] | 87.4
25 | CC1(C)Cc2c(ccc3ccccc23)C(NC(Cc2c[nH]c3ccccc23)C(=O)O)=N1 (centres unmarked) [CBK262569] | 89.4
26 | O=c1/c(=C/c2ccc(N3CCOCC3)cc2)sc2nc3cc(Br)cnc3n12 [CBK262574] | 86.9
27 | CC(NC1=NC(C)(C)Cc2ccccc21)C(=O)O (centres unmarked) [CBK262575] | 89
28 | CC1=C(C(=O)OCc2ccccc2)C2(C(=O)Nc3ccccc32)C(C(=O)OCc2ccccc2)=C(N)O1 (centres unmarked) [CBK262576] | 89.6
29 | O=C(O)CCCN1C(=O)/C(=C/c2c[nH]c3ccccc23)SC1=S [CBK262580] | 119
30 | O=C(O)c1nn2c(C(F)(F)F)cc(-c3cccs3)nc2c1Cl [CBK262581] | 95.4
31 | COc1cc(/C=N/Nc2nc(Nc3ccccc3)nc(Nc3ccccc3)n2)ccc1O [CBK262584] | 84.9
32 | CCCN1CCc2c(sc3nc(SCC(=O)c4ccccc4)n(-c4ccccc4)c(=O)c23)C1 [CBK262587] | 109
